{"source": "patent US11834454B2", "about": "“Alkynylphenylbenzamide compounds and applications thereof” (SHENZHEN NEWDEL BIOTECH CO., LTD., priority 2021, dated 2023)", "key": {"[1]": {"details": "SD rats, cited from earlier work"}, "[2]": {"biological_target": "T1, TRKC (Homo sapiens, UniProt Q16288)", "T1 construct": "purchased American Life Technologies PV3617", "T1 sequence (Q16288 32-839)": "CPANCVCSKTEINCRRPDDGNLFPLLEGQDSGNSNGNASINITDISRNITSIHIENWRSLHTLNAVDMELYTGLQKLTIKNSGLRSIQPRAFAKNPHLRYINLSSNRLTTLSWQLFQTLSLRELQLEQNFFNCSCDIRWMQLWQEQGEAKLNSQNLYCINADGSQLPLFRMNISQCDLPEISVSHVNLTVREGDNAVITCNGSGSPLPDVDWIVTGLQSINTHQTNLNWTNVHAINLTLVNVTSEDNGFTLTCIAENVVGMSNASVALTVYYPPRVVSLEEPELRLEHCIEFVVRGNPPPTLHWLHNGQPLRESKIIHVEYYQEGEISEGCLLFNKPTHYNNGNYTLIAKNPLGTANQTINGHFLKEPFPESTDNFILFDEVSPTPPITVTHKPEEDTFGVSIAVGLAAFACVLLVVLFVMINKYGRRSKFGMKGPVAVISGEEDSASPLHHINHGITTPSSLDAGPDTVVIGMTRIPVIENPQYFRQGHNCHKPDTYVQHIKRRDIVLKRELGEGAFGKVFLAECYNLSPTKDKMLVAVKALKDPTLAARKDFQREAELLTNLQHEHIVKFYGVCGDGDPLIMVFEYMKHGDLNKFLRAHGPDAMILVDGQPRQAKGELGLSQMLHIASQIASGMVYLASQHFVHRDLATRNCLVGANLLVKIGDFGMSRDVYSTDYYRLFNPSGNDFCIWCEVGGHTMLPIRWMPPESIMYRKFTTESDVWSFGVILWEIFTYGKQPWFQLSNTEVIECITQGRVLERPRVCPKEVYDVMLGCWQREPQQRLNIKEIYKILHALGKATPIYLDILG", "assay": "Z'-LYTE kinase activity detection, TRKC", "type": "biochemical"}, "[3]": {"biological_target": "T2, BaF3-CD74-NTRK1 (Homo sapiens, UniProt P04629)", "T2 construct": "fused on or other part: P04233 (HLA class II histocompatibility antigen gamma chain)", "T2 sequence (P04629 510-796 limits assumed)": "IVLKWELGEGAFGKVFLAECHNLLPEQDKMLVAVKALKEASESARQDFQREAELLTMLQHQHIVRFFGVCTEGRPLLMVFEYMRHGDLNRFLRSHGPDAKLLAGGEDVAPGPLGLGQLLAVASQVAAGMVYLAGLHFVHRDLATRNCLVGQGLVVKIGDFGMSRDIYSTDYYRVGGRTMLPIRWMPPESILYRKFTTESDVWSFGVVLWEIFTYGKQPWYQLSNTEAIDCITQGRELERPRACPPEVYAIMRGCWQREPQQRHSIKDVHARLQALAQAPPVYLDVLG", "assay": "Cell proliferation inhibition, Ba/F3-TRKs stable strain (CCK-8)", "type": "cell-based, mouse", "details": "72 hours, read-out: cell viability IC50 CD74-NTRK1", "text": "(§1) The BaF3 cells (mouse pre-B cells) used in this experiment were purchased from the Japanese Cell Bank. All of the monoclonal stable strains, BaF3-CD74-NTRK1, BaF3-ETV6-NTRK2 and BaF3-ETV6-NTRK3 were constructed by our laboratory, and were identified by experiments such as positive control, protein expression and gene sequencing.\n(§2) The brief steps of stable strain construction were as follows: constructed pCDNA3.1(+) plasmid vector carrying genes such as CD74-NTRK1, ETV6-NTRK2, ETV6-NTRK3; the plasmid was electroporated into Ba/F3 cells using Amaxa® Cell Line Nucleofector® Kit V; 48 hours after electroporation, geneticin (G418) with a final concentration of 1000 μg/mL was added to screen for two weeks, and the interleukin 3 (IL3) was removed to continue screening to obtain polyclonal stable strains; and then single clones were selected by limiting dilution method; the stable strains were then identified by the positive drugs, Western Blot (WB), and gene sequencing; the correct monoclonal through identification can be used to study the cell proliferation inhibitory activity of the inhibitors.\n(§3) Cell proliferation inhibitory activity study: The cells in logarithmic growth phase were seeded into 96-well plates at 8000-12000 cells/well, and the inhibitors at different concentrations of (0-10 μM) were added the next day, and the culture was continued for 72 hours; then 10 μL of Cell Counting Kit-8 Cell Counting Reagent (CCK-8 Reagent) was added to each well, and continued to incubate for 1-3 hours; then its absorbance at 450 nm and 650 nm were measured with a super microplate reader. The median inhibitory concentration (IC50) was calculated using medical graphing software (GraphPad Prism 8.0.0)."}, "[4]": {"biological_target": "T3, BaF3-ETV6-NTRK3 (Homo sapiens, UniProt Q16288)", "T3 construct": "fused on or other part: P41212 (Transcription factor ETV6)", "T3 sequence (Q16288 whole entry, the tested form may be a part)": "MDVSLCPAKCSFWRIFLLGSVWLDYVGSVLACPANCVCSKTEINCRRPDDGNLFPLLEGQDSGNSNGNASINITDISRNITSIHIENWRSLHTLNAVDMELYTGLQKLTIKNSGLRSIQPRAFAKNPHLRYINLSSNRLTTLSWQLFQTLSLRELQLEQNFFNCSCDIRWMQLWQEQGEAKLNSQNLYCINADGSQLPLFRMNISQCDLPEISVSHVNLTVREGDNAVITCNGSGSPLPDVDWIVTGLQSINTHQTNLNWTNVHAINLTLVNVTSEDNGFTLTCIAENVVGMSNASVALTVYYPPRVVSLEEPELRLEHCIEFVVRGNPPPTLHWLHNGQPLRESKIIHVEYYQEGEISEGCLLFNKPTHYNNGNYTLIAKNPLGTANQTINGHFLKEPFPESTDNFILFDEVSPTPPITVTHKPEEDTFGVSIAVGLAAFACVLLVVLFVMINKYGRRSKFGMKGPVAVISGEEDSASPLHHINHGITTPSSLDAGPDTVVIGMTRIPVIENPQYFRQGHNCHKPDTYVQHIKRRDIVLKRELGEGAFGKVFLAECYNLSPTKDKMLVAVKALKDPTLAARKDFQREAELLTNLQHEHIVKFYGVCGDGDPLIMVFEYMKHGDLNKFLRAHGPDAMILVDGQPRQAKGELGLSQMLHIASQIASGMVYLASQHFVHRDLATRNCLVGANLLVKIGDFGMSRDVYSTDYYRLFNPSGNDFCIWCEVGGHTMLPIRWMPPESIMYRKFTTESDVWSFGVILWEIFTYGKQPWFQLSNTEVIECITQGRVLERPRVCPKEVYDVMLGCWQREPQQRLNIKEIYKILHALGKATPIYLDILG", "assay": "Cell proliferation inhibition, Ba/F3-TRKs stable strain (CCK-8)", "type": "cell-based, mouse", "details": "72 hours, read-out: cell viability IC50 ETV6-NTRK3", "text": "as §1, §2, §3"}, "[5]": {"biological_target": "T4, BaF3-ETV6-NTRK2 (Homo sapiens, UniProt Q16620)", "T4 construct": "fused on or other part: P41212 (Transcription factor ETV6)", "T4 sequence (Q16620 538-822 limits assumed)": "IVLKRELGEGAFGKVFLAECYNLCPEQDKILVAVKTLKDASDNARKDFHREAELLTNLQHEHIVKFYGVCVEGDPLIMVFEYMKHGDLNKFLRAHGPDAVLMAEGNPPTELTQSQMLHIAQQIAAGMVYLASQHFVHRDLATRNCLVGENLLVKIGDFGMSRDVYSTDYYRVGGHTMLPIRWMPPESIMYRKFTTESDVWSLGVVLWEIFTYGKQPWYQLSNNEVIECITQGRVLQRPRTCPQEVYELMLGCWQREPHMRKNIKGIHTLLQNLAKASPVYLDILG", "assay": "Cell proliferation inhibition, Ba/F3-TRKs stable strain (CCK-8)", "type": "cell-based, mouse", "details": "72 hours, read-out: cell viability IC50 ETV6-NTRK2", "text": "as §1, §2, §3"}, "[6]": {"biological_target": "T5, TRKA (Homo sapiens, UniProt P04629)", "T5 construct": "purchased American Life Technologies PV3144", "T5 sequence (P04629 33-796)": "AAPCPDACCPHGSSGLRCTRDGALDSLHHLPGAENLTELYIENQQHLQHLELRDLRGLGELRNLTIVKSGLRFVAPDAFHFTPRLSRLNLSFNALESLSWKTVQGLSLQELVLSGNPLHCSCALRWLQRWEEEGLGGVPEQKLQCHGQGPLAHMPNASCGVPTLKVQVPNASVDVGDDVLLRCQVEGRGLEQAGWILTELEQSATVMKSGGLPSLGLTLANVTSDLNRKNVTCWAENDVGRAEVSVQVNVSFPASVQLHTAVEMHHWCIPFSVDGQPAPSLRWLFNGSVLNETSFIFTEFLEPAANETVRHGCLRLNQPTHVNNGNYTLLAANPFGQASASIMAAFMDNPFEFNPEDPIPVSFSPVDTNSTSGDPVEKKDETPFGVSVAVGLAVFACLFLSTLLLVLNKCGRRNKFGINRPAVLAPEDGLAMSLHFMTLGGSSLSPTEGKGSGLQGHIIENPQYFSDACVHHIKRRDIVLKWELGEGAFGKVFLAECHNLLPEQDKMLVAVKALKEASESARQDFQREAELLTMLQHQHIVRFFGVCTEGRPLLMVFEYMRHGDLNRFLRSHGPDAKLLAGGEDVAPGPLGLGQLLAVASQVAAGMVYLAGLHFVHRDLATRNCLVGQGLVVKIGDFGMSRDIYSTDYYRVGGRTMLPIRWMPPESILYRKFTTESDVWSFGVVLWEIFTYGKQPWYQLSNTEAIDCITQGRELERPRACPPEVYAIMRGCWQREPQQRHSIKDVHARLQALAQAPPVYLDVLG", "assay": "Z'-LYTE kinase activity detection, TRKA", "type": "biochemical"}, "[7]": {"biological_target": "T6, TRKB (Homo sapiens, UniProt Q16620)", "T6 construct": "purchased American Life Technologies PV3616", "T6 sequence (Q16620 32-822)": "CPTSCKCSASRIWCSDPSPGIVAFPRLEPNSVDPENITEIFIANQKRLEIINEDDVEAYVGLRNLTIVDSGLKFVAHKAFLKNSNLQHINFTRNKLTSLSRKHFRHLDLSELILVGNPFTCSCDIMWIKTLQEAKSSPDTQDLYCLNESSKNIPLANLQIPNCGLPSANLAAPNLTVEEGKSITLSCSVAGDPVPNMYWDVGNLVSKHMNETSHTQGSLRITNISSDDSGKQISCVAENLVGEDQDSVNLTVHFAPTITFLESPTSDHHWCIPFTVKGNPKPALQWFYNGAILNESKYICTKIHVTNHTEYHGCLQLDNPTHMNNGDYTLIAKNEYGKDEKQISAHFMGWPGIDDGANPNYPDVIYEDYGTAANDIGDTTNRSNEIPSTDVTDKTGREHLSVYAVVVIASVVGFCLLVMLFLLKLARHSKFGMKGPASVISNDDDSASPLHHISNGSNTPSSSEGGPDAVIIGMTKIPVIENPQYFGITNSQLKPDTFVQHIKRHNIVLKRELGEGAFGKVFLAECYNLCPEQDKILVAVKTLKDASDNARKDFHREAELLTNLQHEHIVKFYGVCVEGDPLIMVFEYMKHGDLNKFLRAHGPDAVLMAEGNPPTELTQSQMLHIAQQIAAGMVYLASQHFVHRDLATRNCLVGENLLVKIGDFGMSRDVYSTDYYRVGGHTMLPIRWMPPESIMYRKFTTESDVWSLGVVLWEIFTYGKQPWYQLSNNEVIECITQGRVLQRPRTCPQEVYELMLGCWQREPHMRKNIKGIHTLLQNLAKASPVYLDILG", "assay": "Z'-LYTE kinase activity detection, TRKB", "type": "biochemical"}, "[8]": {"biological_target": "VEGFR2 (Homo sapiens, UniProt P35968)", "assay": "Kinase selectivity, Z'-LYTE"}, "[9]": {"biological_target": "PDGFRB (Homo sapiens, UniProt P09619)", "assay": "Kinase selectivity, Z'-LYTE"}, "[10]": {"biological_target": "RET (Homo sapiens, UniProt P07949)", "assay": "Kinase selectivity, Z'-LYTE"}, "[11]": {"biological_target": "PDGFRA (Homo sapiens, UniProt P16234)", "sequence (P16234 24-1089, species assumed)": "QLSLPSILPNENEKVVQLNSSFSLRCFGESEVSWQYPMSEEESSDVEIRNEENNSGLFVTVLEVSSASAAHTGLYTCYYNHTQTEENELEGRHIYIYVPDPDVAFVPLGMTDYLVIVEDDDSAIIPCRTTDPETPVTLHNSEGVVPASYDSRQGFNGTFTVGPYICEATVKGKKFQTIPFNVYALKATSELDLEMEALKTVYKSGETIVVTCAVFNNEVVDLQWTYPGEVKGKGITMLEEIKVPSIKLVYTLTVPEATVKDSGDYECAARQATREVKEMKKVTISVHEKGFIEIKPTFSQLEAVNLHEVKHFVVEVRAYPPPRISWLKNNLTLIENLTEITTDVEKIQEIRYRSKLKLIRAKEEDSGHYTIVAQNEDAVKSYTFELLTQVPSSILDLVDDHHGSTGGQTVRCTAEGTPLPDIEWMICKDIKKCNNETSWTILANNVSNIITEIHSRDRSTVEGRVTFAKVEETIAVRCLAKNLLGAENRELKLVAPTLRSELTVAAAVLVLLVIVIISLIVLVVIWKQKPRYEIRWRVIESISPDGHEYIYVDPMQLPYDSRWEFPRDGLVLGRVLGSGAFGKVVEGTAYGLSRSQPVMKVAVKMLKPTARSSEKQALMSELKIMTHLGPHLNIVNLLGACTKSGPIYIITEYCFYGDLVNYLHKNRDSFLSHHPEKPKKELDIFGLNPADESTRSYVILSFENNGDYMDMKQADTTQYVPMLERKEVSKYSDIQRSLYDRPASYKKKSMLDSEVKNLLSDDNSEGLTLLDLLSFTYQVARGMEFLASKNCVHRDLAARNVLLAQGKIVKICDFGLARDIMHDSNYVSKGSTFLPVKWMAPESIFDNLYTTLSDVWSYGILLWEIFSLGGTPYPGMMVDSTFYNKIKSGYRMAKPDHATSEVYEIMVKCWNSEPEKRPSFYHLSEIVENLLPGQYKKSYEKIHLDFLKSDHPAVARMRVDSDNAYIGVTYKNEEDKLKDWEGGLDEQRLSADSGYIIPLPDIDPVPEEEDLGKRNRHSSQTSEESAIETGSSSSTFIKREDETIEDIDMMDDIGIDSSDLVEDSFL", "assay": "Kinase selectivity, Z'-LYTE"}, "[12]": {"biological_target": "SRC (Homo sapiens, UniProt P12931)", "assay": "Kinase selectivity, Z'-LYTE"}, "[13]": {"biological_target": "Bcr-Abl (Homo sapiens, UniProt P00519)", "assay": "Kinase selectivity, Z'-LYTE"}, "[14]": {"biological_target": "Kit (Homo sapiens, UniProt P10721)", "assay": "Kinase selectivity, Z'-LYTE"}}, "note": "Where two headings read alike, the source gives them in different places."}
{"smiles": "Cc1c(C#Cc2cnc3cnc(-c4ccc(N)cc4)cn23)cccc1C(=O)Nc1cc(CN2CCN(C)CC2)cc(C(C)C)c1", "note": "[Compound 9o]", "values": [{"measurement": "AUC (0-∞)", "setting": "[1]; intravenous injection, 5 mg/kg", "result": 810.45, "unit": "ng·h/mL"}, {"measurement": "AUC(0-t)", "setting": "[1]; intravenous injection, 5 mg/kg", "result": 804.65, "unit": "ng·h/mL"}, {"measurement": "Clearance rate", "setting": "[1]; intravenous injection, 5 mg/kg", "result": 21.0085, "unit": "mL/min/kg"}, {"measurement": "Cmax", "setting": "[1]; intravenous injection, 5 mg/kg", "result": 1968.37, "unit": "ng/mL"}, {"measurement": "Tmax", "setting": "[1]; intravenous injection, 5 mg/kg", "result": 0.083, "unit": "h"}, {"measurement": "half-life", "setting": "[1]; intravenous injection, 5 mg/kg", "result": 2.03, "unit": "h"}, {"measurement": "BA", "setting": "[1]; oral 25 mg/kg vs intravenous 5 mg/kg", "result": 10.72, "unit": "%"}, {"measurement": "AUC (0-∞)", "setting": "[1]; oral, 25 mg/kg", "result": 445.18, "unit": "ng·h/mL"}, {"measurement": "AUC(0-t)", "setting": "[1]; oral, 25 mg/kg", "result": 431.49, "unit": "ng·h/mL"}, {"measurement": "Cmax", "setting": "[1]; oral, 25 mg/kg", "result": 63.3, "unit": "ng/mL"}, {"measurement": "Tmax", "setting": "[1]; oral, 25 mg/kg", "result": 2, "unit": "h"}, {"measurement": "half-life", "setting": "[1]; oral, 25 mg/kg", "result": 4.77, "unit": "h"}]}
{"smiles": "Cc1c(C#Cc2cnc3ccc(N4CCOCC4)nn23)cccc1C(=O)Nc1cc([N+](=O)[O-])cc(C(F)(F)F)c1", "note": "[XS4-77]", "values": [{"measurement": "IC50", "setting": "[2]", "result": "10 to 100", "unit": "nM"}, {"measurement": "IC50", "setting": "[3]", "result": "10 to 100", "unit": "nM"}, {"measurement": "IC50", "setting": "[4]", "result": "< 10", "unit": "nM"}, {"measurement": "IC50", "setting": "[5]", "result": "10 to 100", "unit": "nM"}, {"measurement": "IC50", "setting": "[6]", "result": "10 to 100", "unit": "nM"}, {"measurement": "IC50", "setting": "[7]", "result": "10 to 100", "unit": "nM"}]}
{"smiles": "Cc1ccc(C(=O)Nc2cc(Cl)cc(C(F)(F)F)c2)cc1C#Cc1cnc2ccc(N3CCC(O)CC3)nn12", "note": "[XS4-128, N-(3-Chloro-5-(trifluoromethyl)phenyl)-3-((6-(4-hydroxypiperidin-1-yl)imidazo[1,2-B]pyridazine-3-yl)ethynyl)-4-methylbenzamide, reference compound]", "values": [{"measurement": "IC50", "setting": "[8]", "result": 18.9, "unit": "nM"}, {"measurement": "IC50", "setting": "[9]", "result": 119, "unit": "nM"}, {"measurement": "IC50", "setting": "[10]", "result": 10.7, "unit": "nM"}, {"measurement": "IC50", "setting": "[11]", "result": 19.9, "unit": "nM"}, {"measurement": "IC50", "setting": "[12]", "result": 20.3, "unit": "nM"}, {"measurement": "IC50", "setting": "[13]", "result": 129, "unit": "nM"}, {"measurement": "IC50", "setting": "[14]", "result": 93.5, "unit": "nM"}]}
{"smiles": "Cc1c(C#Cc2cnc3cccnn23)cccc1C(=O)Nc1cc(CN2CCN(C)CC2)cc(C(F)(F)F)c1", "note": "[XS116]", "values": [{"measurement": "IC50", "setting": "[2]", "result": "10 to 100", "unit": "nM"}, {"measurement": "IC50", "setting": "[3]", "result": "100 to 1000", "unit": "nM"}, {"measurement": "IC50", "setting": "[4]", "result": "100 to 1000", "unit": "nM"}, {"measurement": "IC50", "setting": "[5]", "result": "100 to 1000", "unit": "nM"}, {"measurement": "IC50", "setting": "[6]", "result": "10 to 100", "unit": "nM"}, {"measurement": "IC50", "setting": "[7]", "result": "10 to 100", "unit": "nM"}]}
